In US20120015907A1, “Furopyridine compounds and uses thereof” (NOVARTIS AG, priority 2010, published 2012):
pIC50: −log10 of the molar value.

What was measured:
HCV polymerase = molecular target: T1, HCV polymerase (Hepatitis C virus genotype 1b, UniProt Q9WMX2); test: biochemical; conditions: polymerase assay of Biological Example 1; read-out: NS5B polymerase IC50
T1 construct: (His)6 (C)

[1] = test system: HCV replicon I389luc-ubi-neo/NS3-3'/ET in ET (Huh-lucubineo-ET) cells; test: Replicon assay (Biological Example 2), luciferase read-out; assay type: cell-based; conditions: Hepatitis C virus, luciferase activity 48 hours after compound addition
Procedure: A cell line, ET (Huh-lucubineo-ET) is used for screening of compounds for inhibiting HCV RNA dependent RNA polymerase. The ET cell line is stably transfected with RNA transcripts harboring a I389luc-ubi-neo/NS3-3′/ET; replicon with firefly luciferase-ubiquitin-neomycin phosphotransferase fusion protein and EMCV-IRES driven NS3-5B polyprotein containing the cell culture adaptive mutations (E1202G; […]; K1846T) (Krieger at al, 2001 and unpublished). The ET cells are grown in DMEM (Dulbeco's Modified Eagle's Medium), supplemented with 10% fetal calf serum, 2 mM Glutamine, Penicillin (100 IU/mL)/Streptomycin (100 μg/mL), 1× nonessential amino acids, and 250 μg/mL G418 (“Geneticin”). Reagents are all available through Life Technologies (Bethesda, Md.). The cells are plated at 0.5-1.0×10^4 cells/well in the 96 well plates and incubated for 24 hrs before adding test compound. The compounds are added to the cells to achieve a final concentration of 0.1 nM to 50 μM and a final DMSO (dimethylsulfoxide) concentration of 0.5%. Luciferase activity is measured 48 hours later by adding a lysis buffer and the substrate (Catalog number Glo-lysis buffer E2661 and Bright-Glo luciferase system E2620 Promega, Madison, Wis.). Cells should not be too confluent during the assay. Percent inhibition of replication data is plotted relative to no compound control. To determine the EC50 (effective concentration at which 50% of the maximum inhibition is observed), a 10 point, 3-fold serial dilution for each compound is used, which spans a concentration range of 1000 fold. EC50 values were calculated by fitting % inhibition at each concentration to the following equation:
% inhibition=100%/[(EC50/[I])^b+1]
where b is Hill's coefficient.

CCc1cc2c(C(=O)NC)c(-c3ccc(F)cc3)oc2nc1N(CCCC1CCCS1(=O)=O)S(C)(=O)=O (racemic) [Example 22.98, 6-{[3-(1,1-Dioxo-tetrahydro-1lambdathiophen-2-yl)-propyl]-methanesulfonyl-amino}-5-ethyl-2-(4-fluoro-phenyl)-furo[2,3-b]pyridine-3-carboxylic acid methylamide]
pIC50 (HCV polymerase): 7.96
pIC50 [1]: ≥ 7.00

CNC(=O)c1c(-c2ccc(Cl)cc2)oc2nc(N(CCCCC(=O)O)S(C)(=O)=O)c(C3CC3)cc12 [Example 27.5, 5-(N-(2-(4-chlorophenyl)-5-cyclopropyl-3-(methylcarbamoyl)furo[2,3-b]pyridin-6-yl)methylsulfonamido) pentanoic acid]
pIC50 (HCV polymerase): 9.00
pIC50 [1]: ≥ 7.00

CNC(=O)c1c(-c2ccc(C)cc2)oc2nc(N(CCCS(C)(=O)=O)S(C)(=O)=O)c(C3CC3)cc12 [Example 25.3, 5-cyclopropyl-N-methyl-6-(N-(3-(methylsulfonyl)propyl)methylsulfonamido)-2-p-tolylfuro[2,3-b]pyridine-3-carboxamide]
pIC50 (HCV polymerase): 9.00
pIC50 [1]: ≥ 7.00

CNC(=O)c1c(-c2ccc(C)cc2)oc2nc(N(CCCCC(=O)OC)S(C)(=O)=O)c(C3CC3)cc12 [Example 25.2, methyl 5-(N-(5-cyclopropyl-3-(methylcarbamoyl)-2-p-tolylfuro[2,3-b]pyridin-6-yl)methylsulfonamido) pentanoate]
pIC50 (HCV polymerase): 8.52
pIC50 [1]: ≥ 7.00

CCc1cc2c(C(=O)NC)c(-c3ccc(F)cc3)oc2nc1N(Cc1cccc(C#N)c1)S(C)(=O)=O [Example 21.99, 6-(N-(3-cyanobenzyl)methylsulfonamido)-5-ethyl-2-(4-fluorophenyl)-N-methylfuro[2,3-b]pyridine-3-carboxamide]
pIC50 (HCV polymerase): 5.34
pIC50 [1]: ≤ 5.30

CNC(=O)c1c(-c2ccc(C3CC3)cc2)oc2nc(N(CCCCC(=O)O)S(C)(=O)=O)c(C3CC3)cc12 [Example 27.7, 5-(N-(5-cyclopropyl-2-(4-cyclopropylphenyl)-3-(methylcarbamoyl)furo[2,3-b]pyridin-6-yl)methylsulfonamido) pentanoic acid]
pIC50 (HCV polymerase): 9.00
pIC50 [1]: ≥ 7.00

C=Cc1cc2c(C(=O)NC)c(-c3ccc(F)cc3)oc2nc1N(CCCCC(=O)OC)S(C)(=O)=O [Example 24.3, methyl 5-(N-(2-(4-fluorophenyl)-3-(methylcarbamoyl)-5-vinylfuro[2,3-b]pyridin-6-yl)methylsulfonamido) pentanoate]
pIC50 (HCV polymerase): 7.24
pIC50 [1]: ≥ 7.00

CNC(=O)c1c(-c2ccc(Cl)cc2F)oc2nc(N(C)S(C)(=O)=O)c(C3CC3)cc12 [Example 2.97]
pIC50 (HCV polymerase): 8.40
pIC50 [1]: ≥ 7.00

CNC(=O)c1c(-c2ccc(F)cc2)oc2nc(N(C)S(C)(=O)=O)c(C3CC3)cc12 [Example 1, 5-Cyclopropyl-2-(4-fluoro-phenyl)-6-(methanesulfonyl-methyl-amino)-furo[2,3-b]pyridine-3-carboxylic acid methylamide]
pIC50 (HCV polymerase): 7.80
pIC50 [1]: ≥ 7.00

CCc1cc2c(C(=O)NC)c(-c3ccc(F)cc3)oc2nc1N(C)S(C)(=O)=O [Example 6, 5-Ethyl-2-(4-fluoro-phenyl)-6-(methanesulfonyl-methyl-amino)-furo[2,3-b]pyridine-3-carboxylic acid methylamide]
pIC50 (HCV polymerase): 7.70
pIC50 [1]: ≥ 7.00

CNC(=O)c1c(-c2ccc(Cl)cc2)oc2nc(N(CCCCS(C)(=O)=O)S(C)(=O)=O)c(C3CC3)cc12 [Example 25.8]
pIC50 (HCV polymerase): 9.00
pIC50 [1]: ≥ 7.00

CNC(=O)c1c(-c2ccc(C)cc2)oc2nc(N(C)S(C)(=O)=O)c(I)cc12 [Example 2.9, 5-iodo-N-methyl-6-(N-methylmethylsulfonamido)-2-p-tolylfuro[2,3-b]pyridine-3-carboxamide]
pIC50 (HCV polymerase): 7.80
pIC50 [1]: ≥ 7.00

CCc1cc2c(C(=O)NC)c(-c3ccc(F)cc3)oc2nc1N(CCCN1CCCS1(=O)=O)S(C)(=O)=O [Example 23.1, 6-{[3-(1,1-Dioxo-isothiazolidin-2-yl)-propyl]-methanesulfonyl-amino}-5-ethyl-2-(4-fluoro-phenyl)-furo[2,3-b]pyridine-3-carboxylic acid methylamide]
pIC50 (HCV polymerase): 7.35
pIC50 [1]: ≥ 7.00

CNC(=O)c1c(-c2ccc(C)cc2)oc2nc(N(CCCCS(C)(=O)=O)S(C)(=O)=O)c(I)cc12 [Example 18.996, 5-iodo-N-methyl-6-(N-(4-(methylsulfonyl)butyl)methylsulfonamido)-2-p-tolylfuro[2,3-b]pyridine-3-carboxamide]
pIC50 (HCV polymerase): 8.40
pIC50 [1]: ≥ 7.00

CNC(=O)c1c(-c2ccc(F)cc2)oc2nc(N(CCC(C)S(C)(=O)=O)S(C)(=O)=O)c(C3CC3)cc12 (stereo not shown) [Example 26.6, 5-cyclopropyl-2-(4-fluorophenyl)-N-methyl-6-(N-(3-(methylsulfonyl)butyl)methylsulfonamido)furo[2,3-b]pyridine-3-carboxamide]
pIC50 (HCV polymerase): 8.40
pIC50 [1]: ≥ 7.00

C=Cc1cc2c(C(=O)NC)c(-c3ccc(F)cc3)oc2nc1N(C)S(C)(=O)=O [Example 2.1, 2-(4-fluorophenyl)-N-methyl-6-(N-methylmethylsulfonamido)-5-vinylfuro[2,3-b]pyridine-3-carboxamide]
pIC50 (HCV polymerase): 7.92
pIC50 [1]: ≥ 7.00

CCc1cc2c(C(=O)NC)c(-c3ccc(F)cc3)oc2nc1N(CCCS(=O)(=O)C(C)C)S(C)(=O)=O [Example 23.91, 5-ethyl-2-(4-fluorophenyl)-6-(N-(3-(isopropylsulfonyl)propyl)methylsulfonamido)-N-methylfuro[2,3-b]pyridine-3-carboxamide]
pIC50 (HCV polymerase): 7.74
pIC50 [1]: ≥ 7.00

CNC(=O)c1c(-c2ccc(Cl)cc2)oc2nc(N(C)S(C)(=O)=O)c(C3CC3)cc12 [Example 2.96]
pIC50 (HCV polymerase): 7.62
pIC50 [1]: ≥ 7.00

CNC(=O)c1c(-c2ccc(F)cc2)oc2nc3c(cc12)CCCCCN3S(C)(=O)=O [Example 36, 2-(4-Fluoro-phenyl)-10-methanesulfonyl-5,6,7,8,9,10-hexahydro-1-oxa-10,11-diaza-cycloocta[f]indene-3-carboxylic acid methylamide]
pIC50 (HCV polymerase): 7.30
pIC50 [1]: ≥ 7.00

CNC(=O)c1c(-c2ccc(C3CC3)cc2)oc2nc(N(CCCCS(C)(=O)=O)S(C)(=O)=O)c(C3CC3)cc12 [Example 25.9, 5-cyclopropyl-2-(4-cyclopropylphenyl)-N-methyl-6-(N-(4-(methylsulfonyl)butyl)methylsulfonamido)furo[2,3-b]pyridine-3-carboxamide]
pIC50 (HCV polymerase): 8.52
pIC50 [1]: ≥ 7.00

CNC(=O)c1c(-c2ccc(Cl)cc2)oc2nc(N(CCCC(C)(C)C(=O)O)S(C)(=O)=O)c(C3CC3)cc12 [Example 28.3, 5-(N-(2-(4-chlorophenyl)-5-cyclopropyl-3-(methylcarbamoyl)furo[2,3-b]pyridin-6-yl)methylsulfonamido)-2,2-dimethylpentanoic acid]
pIC50 (HCV polymerase): 8.70
pIC50 [1]: ≥ 7.00

CNC(=O)c1c(-c2ccc(C)cc2)oc2nc(N(CCCS(C)(=O)=O)S(C)(=O)=O)c(I)cc12 [Example 18.994, 5-iodo-N-methyl-6-(N-(3-(methylsulfonyl)propyl)methylsulfonamido)-2-p-tolylfuro[2,3-b]pyridine-3-carboxamide]
pIC50 (HCV polymerase): 7.85
pIC50 [1]: ≥ 7.00

CNC(=O)c1c(-c2ccc(C)cc2)oc2nc(N(CCCCCC(=O)O)S(C)(=O)=O)c(C3CC3)cc12 [Example 27.9, 6-(N-(5-cyclopropyl-3-(methylcarbamoyl)-2-p-tolylfuro[2,3-b]pyridin-6-yl)methylsulfonamido) hexanoic acid]
pIC50 (HCV polymerase): 8.70
pIC50 [1]: ≥ 7.00

CNC(=O)c1c(-c2ccc(F)cc2)oc2nc(N(C)S(C)(=O)=O)c(CCCCC(C)(O)C(C)(C)O)cc12 (stereo not shown) [Example 4.9, 5-(5,6-dihydroxy-5,6-dimethylheptyl)-2-(4-fluorophenyl)-N-methyl-6-(N-methylmethylsulfonamido)furo[2,3-b]pyridine-3-carboxamide]
pIC50 (HCV polymerase): 7.12
pIC50 [1]: ≥ 7.00

CNC(=O)c1c(-c2ccc(Oc3ccccc3)cc2)oc2nc(N(CCCC(C)(C)C(=O)O)S(C)(=O)=O)c(C3CC3)cc12 [Example 27.4, 5-(N-(5-cyclopropyl-3-(methylcarbamoyl)-2-(4-phenoxyphenyl)furo[2,3-b]pyridin-6-yl)methylsulfonamido)-2,2-dimethylpentanoic acid]
pIC50 (HCV polymerase): 9.00
pIC50 [1]: ≥ 7.00

CNC(=O)c1c(-c2ccc(C)cc2)oc2nc(N(CCC[C@@H]3CCCS3(=O)=O)S(C)(=O)=O)c(C3CC3)cc12 [Example 24.7, 5-Cyclopropyl-6-{[3-((R)-1,1-dioxo-tetrahydrothiophen-2-yl)-propyl]-methanesulfonyl-amino}-2-p-tolyl-furo[2,3-b]pyridine-3-carboxylic acid methylamide]
pIC50 (HCV polymerase): 8.30
pIC50 [1]: ≥ 7.00
